Where two headings read alike, the source gives them in different places. Where only a bound is given, the exact number is not on record here.

Data on five compounds can be found in US9309242B2, “Substituted pyrido[2,3-b]pyrazines as FGFR kinase inhibitors” (priority 2011, dated 2016).

The target in assay [1] is FGFR1 (h) (Homo sapiens, UniProt P11362). Kind of assay: FGFR1 (enzymatic assay), TR-FRET. It is filed as biochemical. The following applies: read-out: FGFR 1 pIC50 (converted).
Assay [2] deals with FGFR2 (h) (Homo sapiens, UniProt P21802). Kind of assay: FGFR2 (enzymatic assay), TR-FRET. In kind it is biochemical. The following applies: enzymatic assay, read-out: FGFR 2 pIC50 (converted). In a few lines: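 Compound (1% DMSO final) was combined with FGFR2 (h), 150 ng/ml, plus 0.4 μM ATP and 500 nM biotin-Flt3 in Mn2+-containing HEPES buffer at pH 7.5.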
Chain of FGFR2 (h) (P21802 22-821): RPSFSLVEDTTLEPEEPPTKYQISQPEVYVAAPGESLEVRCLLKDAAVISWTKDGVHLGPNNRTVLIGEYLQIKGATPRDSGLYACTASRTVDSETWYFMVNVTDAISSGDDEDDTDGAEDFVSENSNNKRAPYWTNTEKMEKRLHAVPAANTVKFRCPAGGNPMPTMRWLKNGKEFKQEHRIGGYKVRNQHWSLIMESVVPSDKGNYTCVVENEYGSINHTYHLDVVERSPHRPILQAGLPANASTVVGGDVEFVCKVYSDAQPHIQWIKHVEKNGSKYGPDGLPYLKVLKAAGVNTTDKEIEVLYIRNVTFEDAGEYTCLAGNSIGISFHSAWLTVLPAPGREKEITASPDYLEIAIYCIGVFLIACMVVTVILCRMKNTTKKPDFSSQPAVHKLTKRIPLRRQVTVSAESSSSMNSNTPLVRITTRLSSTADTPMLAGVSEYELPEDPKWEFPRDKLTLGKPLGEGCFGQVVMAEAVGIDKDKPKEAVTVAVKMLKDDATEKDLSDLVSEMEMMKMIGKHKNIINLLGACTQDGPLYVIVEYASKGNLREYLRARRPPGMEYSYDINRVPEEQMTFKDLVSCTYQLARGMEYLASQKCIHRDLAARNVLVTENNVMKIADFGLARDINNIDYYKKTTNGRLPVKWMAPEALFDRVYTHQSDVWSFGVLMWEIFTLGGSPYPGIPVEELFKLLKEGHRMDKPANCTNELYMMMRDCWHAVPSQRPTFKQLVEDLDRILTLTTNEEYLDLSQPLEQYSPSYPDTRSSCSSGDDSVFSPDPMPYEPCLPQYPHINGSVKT
A general note: TR-FRET usually uses a lanthanide donor and a delayed reading to cut background.

Assay [3] addresses FGFR3 (h) (Homo sapiens, UniProt P22607). In words: FGFR3 (enzymatic assay), TR-FRET. In kind it is biochemical. Particulars: read-out: FGFR 3 pIC50 (converted). An excerpt: Time-Resolved Fluorescence Resonance Energy Transfer (TR-FRET) signal (ex340 nm.
The target of assay [4] is FGFR4 (h) (Homo sapiens, UniProt P22455). In words: FGFR4 (enzymatic assay), TR-FRET. It is filed as biochemical. The following applies: FGFR 4 pIC50, enzymatic assay.
In assay [5] the target is KDR (h) (Homo sapiens, UniProt P35968). Kind of assay: KDR (VEGFR2) (enzymatic assay), TR-FRET. In kind it is biochemical. The following applies: read-out: VEGFR 2 (KDR) pIC50 (converted). In a few lines: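 First, kinase (150 ng/ml), Btn-Flt3 (500 nM), ATP (3 μM) and compound (1% DMSO) react 120 min at RT in pH 7.5 HEPES/6 mM MnCl2. Next, EDTA with Eu-anti-P-Tyr and SA-XL-665 stops it for 60 min. Finally, TR-FRET is read as RFU.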
Chain of KDR (h) (P35968 20-1356): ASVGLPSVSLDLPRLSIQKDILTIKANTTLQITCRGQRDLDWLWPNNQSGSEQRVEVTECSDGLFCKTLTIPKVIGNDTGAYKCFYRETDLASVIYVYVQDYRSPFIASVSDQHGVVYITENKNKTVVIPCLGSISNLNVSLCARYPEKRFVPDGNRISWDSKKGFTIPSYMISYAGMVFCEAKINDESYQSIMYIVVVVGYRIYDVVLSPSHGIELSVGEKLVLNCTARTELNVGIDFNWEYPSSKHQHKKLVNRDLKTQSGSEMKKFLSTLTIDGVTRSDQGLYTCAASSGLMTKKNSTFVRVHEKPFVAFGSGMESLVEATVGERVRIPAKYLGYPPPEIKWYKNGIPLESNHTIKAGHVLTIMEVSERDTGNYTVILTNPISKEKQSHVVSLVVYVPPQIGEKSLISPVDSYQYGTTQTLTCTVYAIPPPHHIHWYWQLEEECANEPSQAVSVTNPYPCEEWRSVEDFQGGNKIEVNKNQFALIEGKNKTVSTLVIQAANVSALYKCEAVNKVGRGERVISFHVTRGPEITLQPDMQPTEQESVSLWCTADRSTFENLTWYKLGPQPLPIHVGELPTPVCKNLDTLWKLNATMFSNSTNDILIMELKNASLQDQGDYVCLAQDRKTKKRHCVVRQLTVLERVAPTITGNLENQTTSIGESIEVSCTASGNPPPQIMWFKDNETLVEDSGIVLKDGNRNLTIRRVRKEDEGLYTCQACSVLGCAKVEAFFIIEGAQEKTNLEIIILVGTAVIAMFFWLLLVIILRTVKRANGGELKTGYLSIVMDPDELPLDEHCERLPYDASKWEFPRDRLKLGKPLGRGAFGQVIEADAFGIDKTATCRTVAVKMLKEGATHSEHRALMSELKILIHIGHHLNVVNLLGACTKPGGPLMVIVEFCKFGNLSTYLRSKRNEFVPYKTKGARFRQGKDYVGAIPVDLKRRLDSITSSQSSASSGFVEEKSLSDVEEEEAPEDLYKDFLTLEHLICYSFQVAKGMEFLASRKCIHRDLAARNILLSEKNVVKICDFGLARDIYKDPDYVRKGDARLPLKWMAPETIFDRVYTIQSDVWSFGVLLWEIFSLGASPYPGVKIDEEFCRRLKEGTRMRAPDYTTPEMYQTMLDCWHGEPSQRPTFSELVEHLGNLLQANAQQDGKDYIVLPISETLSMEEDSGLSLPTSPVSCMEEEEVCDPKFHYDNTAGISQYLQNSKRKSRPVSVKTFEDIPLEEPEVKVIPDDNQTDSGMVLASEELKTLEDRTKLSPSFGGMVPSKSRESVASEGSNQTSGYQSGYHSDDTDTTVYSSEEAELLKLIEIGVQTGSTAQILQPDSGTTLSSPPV

In assay [6] the target is T1, Ba/F3-FGFR1-transfected cells (Homo sapiens, UniProt P11362).
T1 construct: BAF3-FGFR1 (MIN IL3) pIC50; other: minus IL3
T1 sequence (P11362 whole entry, change not shown): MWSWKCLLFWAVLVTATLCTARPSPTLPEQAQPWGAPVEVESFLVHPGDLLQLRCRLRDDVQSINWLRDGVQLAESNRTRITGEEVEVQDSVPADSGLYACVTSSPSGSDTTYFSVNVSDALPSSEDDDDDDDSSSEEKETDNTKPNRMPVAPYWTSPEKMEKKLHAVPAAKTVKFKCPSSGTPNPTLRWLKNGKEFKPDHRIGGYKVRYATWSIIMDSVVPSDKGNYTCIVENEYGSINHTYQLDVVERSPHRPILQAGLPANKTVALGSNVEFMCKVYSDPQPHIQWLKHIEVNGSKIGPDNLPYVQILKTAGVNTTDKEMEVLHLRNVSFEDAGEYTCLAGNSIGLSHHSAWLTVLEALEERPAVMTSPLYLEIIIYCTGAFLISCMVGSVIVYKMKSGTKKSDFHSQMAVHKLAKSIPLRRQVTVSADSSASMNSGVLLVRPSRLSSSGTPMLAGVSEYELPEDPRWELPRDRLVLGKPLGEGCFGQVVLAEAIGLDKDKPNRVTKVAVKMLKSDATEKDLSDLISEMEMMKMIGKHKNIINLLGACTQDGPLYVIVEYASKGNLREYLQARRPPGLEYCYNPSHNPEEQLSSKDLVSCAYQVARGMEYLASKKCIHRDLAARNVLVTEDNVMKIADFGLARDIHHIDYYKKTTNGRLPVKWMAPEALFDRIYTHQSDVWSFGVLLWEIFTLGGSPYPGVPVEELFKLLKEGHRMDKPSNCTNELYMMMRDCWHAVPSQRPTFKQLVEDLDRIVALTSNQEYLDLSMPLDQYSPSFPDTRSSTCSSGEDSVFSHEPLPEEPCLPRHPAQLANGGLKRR
Kind of assay: Ba/F3-FGFR1 (minus IL3) cellular proliferation assay, Alamar Blue. In kind it is cell-based. In a few lines: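 Viability was measured by resazurin reduction (fluorescence, 540 nm excitation/590 nm emission) after a 4 h Alamar Blue incubation. This followed 24 h of compound treatment at 37 °C, 5% CO2, of 20000 FGFR1-transfected Ba/F3 cells per well in 10% FBS RPMI-1640.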
(Resazurin is reduced to fluorescent resorufin, in cell work by metabolically active cells.)

Assay [7] relates to Ba/F3-FGFR1-transfected cells. Kind of assay: Ba/F3-FGFR1 (plus IL3) cellular proliferation assay, counterscreen with 10 ng/ml murine IL3. The following applies: for BAF3-FGFR1 (PLUS IL3) pIC50: plus IL3 (10 ng/ml murine IL3, counterscreen). In kind it is cell-based. The procedure, abridged: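 Ba/F3-FGFR1 cells (20000/well) in RPMI-1640 with 10% FBS exposed to compound for 24 h at 37° C., 5% CO2, then Alamar Blue (resazurin) added for 4 h; fluorescence read at ex 540/em 590 nm. Counterscreen run identically with 10 ng/ml murine IL3.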
In general terms: Counterscreens check selectivity or assay interference.

Assay [8] concerns the target T2, Ba/F3-FGFR3-transfected cells (Homo sapiens, UniProt P22607).
T2 construct: BAF3-FGFR3 (MIN IL3) pIC50; other: minus IL3
In words: Ba/F3-FGFR3 (minus IL3) cellular proliferation assay, Alamar Blue. It is filed as cell-based. The procedure, abridged:
(§1)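 Viability readout was resazurin reduction (ex 540/em 590 nm) after 4 h, following 24 h compound treatment at 37 °C of FGFR3-transfected Ba/F3 cells (20000/well, RPMI-1640/10% FBS). IL3-dependent counterscreen used identical conditions plus 10 ng/ml murine IL3.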

The subject of assay [9] is Ba/F3-FGFR3-transfected cells. Kind of assay: Ba/F3-FGFR3 (plus IL3) cellular proliferation assay, counterscreen with 10 ng/ml murine IL3. It is filed as cell-based. The following applies: for BAF3-FGFR3 (PLUS IL3) pIC50: plus IL3 (10 ng/ml murine IL3, counterscreen). In a few lines:
as §1

The target of assay [10] is T3, Ba/F3-KDR-transfected cells (Homo sapiens, UniProt P35968).
T3 construct: BAF3-KDR (MIN IL3) pIC50; other: minus IL3
T3 sequence (P35968 whole entry, change not shown): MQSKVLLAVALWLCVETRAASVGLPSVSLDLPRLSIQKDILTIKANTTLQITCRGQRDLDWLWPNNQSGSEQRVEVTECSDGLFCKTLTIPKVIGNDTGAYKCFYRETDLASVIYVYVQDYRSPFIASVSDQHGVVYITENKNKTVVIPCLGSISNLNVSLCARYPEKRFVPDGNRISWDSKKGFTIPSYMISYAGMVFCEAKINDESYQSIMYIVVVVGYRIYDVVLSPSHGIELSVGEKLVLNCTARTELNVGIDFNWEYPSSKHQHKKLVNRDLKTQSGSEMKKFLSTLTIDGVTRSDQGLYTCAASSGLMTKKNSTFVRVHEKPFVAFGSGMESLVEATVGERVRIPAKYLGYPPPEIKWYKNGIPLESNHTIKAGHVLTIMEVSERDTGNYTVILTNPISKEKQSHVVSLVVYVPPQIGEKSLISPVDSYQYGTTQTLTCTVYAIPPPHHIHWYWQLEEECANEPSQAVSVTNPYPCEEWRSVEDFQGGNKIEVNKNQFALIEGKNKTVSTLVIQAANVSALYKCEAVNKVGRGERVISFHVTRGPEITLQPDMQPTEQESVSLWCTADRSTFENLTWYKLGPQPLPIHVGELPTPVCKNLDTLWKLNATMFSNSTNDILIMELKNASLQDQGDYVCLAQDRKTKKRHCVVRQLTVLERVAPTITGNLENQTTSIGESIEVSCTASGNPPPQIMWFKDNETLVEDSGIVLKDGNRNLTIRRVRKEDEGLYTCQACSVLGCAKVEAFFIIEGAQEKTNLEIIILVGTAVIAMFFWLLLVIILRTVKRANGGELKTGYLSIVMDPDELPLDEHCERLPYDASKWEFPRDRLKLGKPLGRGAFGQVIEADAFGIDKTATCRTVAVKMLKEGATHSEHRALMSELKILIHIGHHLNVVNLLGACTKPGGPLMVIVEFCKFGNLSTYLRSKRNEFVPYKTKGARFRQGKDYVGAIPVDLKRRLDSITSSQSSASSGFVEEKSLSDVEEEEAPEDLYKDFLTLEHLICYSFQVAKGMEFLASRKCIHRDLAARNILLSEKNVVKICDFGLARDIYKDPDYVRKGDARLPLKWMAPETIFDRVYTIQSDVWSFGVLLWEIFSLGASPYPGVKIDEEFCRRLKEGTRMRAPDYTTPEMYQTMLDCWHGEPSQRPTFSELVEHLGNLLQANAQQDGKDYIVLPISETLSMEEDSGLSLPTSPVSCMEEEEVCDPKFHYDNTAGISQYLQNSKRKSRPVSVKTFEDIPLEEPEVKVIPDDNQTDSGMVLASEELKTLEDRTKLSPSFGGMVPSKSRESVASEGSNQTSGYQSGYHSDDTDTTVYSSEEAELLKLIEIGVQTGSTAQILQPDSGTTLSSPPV
Kind of assay: Ba/F3-KDR (minus IL3) cellular proliferation assay, Alamar Blue. In kind it is cell-based. The procedure, abridged:
(§2)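 Proliferation is measured as Alamar Blue relative fluorescence units following 24 h compound treatment of 20000 cells per well in 10% FBS medium. The IL3-supplemented run serves as a counterscreen under the same conditions.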

Assay [11] concerns Ba/F3-KDR-transfected cells. In words: Ba/F3-KDR (plus IL3) cellular proliferation assay, counterscreen with 10 ng/ml murine IL3. In kind it is cell-based. The following applies: for BAF3-KDR (PLUS IL3) pIC50: plus IL3 (10 ng/ml murine IL3, counterscreen). In a few lines:
as §2

Assay [12] concerns the target Ba/F3-FGFR4-transfected cells (Homo sapiens, UniProt P22455). Kind of assay: Ba/F3-FGFR4 cellular proliferation assay, Alamar Blue. It is filed as cell-based. The procedure, abridged:
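Proliferation of Ba/F3-FGFR4-transfected cells is gauged by Alamar Blue (resazurin) fluorescence after 24 hours of compound treatment in phenol red free RPMI-1640 with 10% FBS.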

[13] abbreviates: average values if tested multiple times.

T2 sequence (P22607 whole entry, change not shown): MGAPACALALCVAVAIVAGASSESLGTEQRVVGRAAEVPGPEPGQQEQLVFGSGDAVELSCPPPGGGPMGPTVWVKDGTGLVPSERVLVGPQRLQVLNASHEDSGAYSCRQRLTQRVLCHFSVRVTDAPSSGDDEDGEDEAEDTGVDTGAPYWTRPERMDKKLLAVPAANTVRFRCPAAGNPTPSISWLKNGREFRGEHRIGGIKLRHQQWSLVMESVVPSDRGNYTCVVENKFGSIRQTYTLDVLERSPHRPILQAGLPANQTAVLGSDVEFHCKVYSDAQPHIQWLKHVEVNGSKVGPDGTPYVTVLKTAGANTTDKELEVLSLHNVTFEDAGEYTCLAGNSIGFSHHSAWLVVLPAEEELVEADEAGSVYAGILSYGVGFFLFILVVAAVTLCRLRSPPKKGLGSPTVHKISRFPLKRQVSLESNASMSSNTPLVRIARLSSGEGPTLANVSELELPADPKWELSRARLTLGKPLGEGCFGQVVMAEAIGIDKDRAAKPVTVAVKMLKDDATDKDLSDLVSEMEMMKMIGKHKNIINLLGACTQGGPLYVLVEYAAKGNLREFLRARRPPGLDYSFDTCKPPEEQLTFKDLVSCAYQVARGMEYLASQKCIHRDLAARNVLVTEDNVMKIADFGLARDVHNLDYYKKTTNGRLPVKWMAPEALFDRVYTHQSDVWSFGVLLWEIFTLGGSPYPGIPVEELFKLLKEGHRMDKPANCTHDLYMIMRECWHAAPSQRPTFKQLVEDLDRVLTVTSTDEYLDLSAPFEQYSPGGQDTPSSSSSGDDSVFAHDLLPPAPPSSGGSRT

As for `COc1cc(OC)c(F)c(N(CC(O)COC(C)C)c2ccc3ncc(-c4cnn(C)c4)nc3n2)c1` (single isomer, unassigned) [Compound 79], the IC50 in assay [1] (setting [13]) was 2.34 nM; in assay [2] (setting [13]), 2.95 nM; in [3] (setting [13]), 1.66 nM; in assay [4] (setting [13]), 2 nM; in assay [5] (setting [13]) it was 25.7 nM. In addition, the “BAF3-FGFR1 (MIN IL3) pIC50” value in assay [6] came to 7.58. Besides, in assay [7], the “BAF3-FGFR1 (PLUS IL3) pIC50” value was below 5. In addition, in [8], the “BAF3-FGFR3 (MIN IL3) pIC50” value was determined as 7.63. For the same compound, in [9], the “BAF3-FGFR3 (PLUS IL3) pIC50” value is reported as below 5. Besides, the “BAF3-KDR (MIN IL3) pIC50” value in [10] amounted to 5.73. Also, the “BAF3-KDR (PLUS IL3) pIC50” value in assay [11] was below 5. Also, the “BAF3-FGFR4 pIC50” value in assay [12] turned out to be 7.28.

Turning to `COc1ccc(Cl)c(N(CC2CCC(=O)N2)c2ccc3ncc(-c4cnn(C)c4)nc3n2)c1Cl` (single isomer, unassigned) [Compound 91], the IC50 is 219 nM in [1]; 145 nM in assay [2]; 138 nM in assay [3]; above 1000 nM in [4]; 741 nM in assay [5]. The “BAF3-FGFR1 (MIN IL3) pIC50” value in assay [6] was 5.13. Besides, the “BAF3-FGFR1 (PLUS IL3) pIC50” value in [7] is below 5. The “BAF3-FGFR3 (MIN IL3) pIC50” value in assay [8] is given as 5.17. Besides, the “BAF3-FGFR3 (PLUS IL3) pIC50” value in [9] is listed as below 5. In addition, in assay [10], the “BAF3-KDR (MIN IL3) pIC50” value is below 5. The “BAF3-KDR (PLUS IL3) pIC50” value in assay [11] is given as below 5. Further, the “BAF3-FGFR4 pIC50” value in assay [12] is recorded as below 5.

As to `COc1cc(OC)c(F)c(N(CC(O)COC(C)C)c2ccc3ncc(-c4cnn(C)c4)nc3n2)c1F` (stereo not drawn) [Compound 61], the IC50 in assay [1] (setting [13]) was 2.24 nM; in assay [2] (setting [13]) it was 4.17 nM; in assay [3] (setting [13]) it was 3.98 nM; in [4] (setting [13]), 4.07 nM; in assay [5] (setting [13]), 16.6 nM. In assay [6], the “BAF3-FGFR1 (MIN IL3) pIC50” value amounted to 7.56. Further, in assay [7], the “BAF3-FGFR1 (PLUS IL3) pIC50” value is below 5. Besides, the “BAF3-FGFR3 (MIN IL3) pIC50” value in [8] is given as 7.87. Further, in [9], the “BAF3-FGFR3 (PLUS IL3) pIC50” value was below 5. The “BAF3-KDR (MIN IL3) pIC50” value in [10] turned out to be 6.29. Also, in [11], the “BAF3-KDR (PLUS IL3) pIC50” value is below 5. For the same compound, the “BAF3-FGFR4 pIC50” value in [12] was determined as 7.56.

`COc1cc(OC)c(F)c(N(CCS(C)(=O)=O)c2ccc3ncc(-c4cnn(C)c4)nc3n2)c1` [Compound 226]: the IC50 in assay [1] was 0.912 nM; in assay [2], 2.19 nM; in assay [3] it was 1.12 nM; in assay [4], 3.02 nM; in assay [5], 26.3 nM; in assay [7] (read-out: BAF3-FGFR1 (PLUS IL3) pIC50 (converted)), above 10000 nM. For the same compound, the IC50 in assay [9] (read-out: BAF3-FGFR3 (PLUS IL3) pIC50 (converted)) and in assay [11] (read-out: BAF3-KDR (PLUS IL3) pIC50 (converted)) was above 10000 nM throughout. Also, the “BAF3-FGFR1 (MIN IL3) pIC50” value in assay [6] was found to be 7.32. Also, the “BAF3-FGFR3 (MIN IL3) pIC50” value in [8] is recorded as around 7.54. Also, the “BAF3-KDR (MIN IL3) pIC50” value in [10] is given as 5.92. In assay [12], the “BAF3-FGFR4 pIC50” value amounted to 6.60.

`COCC(O)CN(c1ccc2ncc(-c3cnn(C)c3)nc2n1)c1cc(OC)cc(OC)c1F` (single isomer, unassigned) [Compound 59]: the IC50 in assay [1] (setting [13]) was around 1.78 nM; in assay [2] (setting [13]), 1.82 nM; in assay [3] (setting [13]), 1.23 nM; in [4] (setting [13]), 2.19 nM; in assay [5] (setting [13]), 25.1 nM. Besides, the “BAF3-FGFR1 (MIN IL3) pIC50” value in assay [6] came to 7.60. In addition, the “BAF3-FGFR1 (PLUS IL3) pIC50” value in assay [7] is listed as below 5. The “BAF3-FGFR3 (MIN IL3) pIC50” value in assay [8] stood at 7.71. Besides, the “BAF3-FGFR3 (PLUS IL3) pIC50” value in assay [9] was below 5. Moreover, in assay [10], the “BAF3-KDR (MIN IL3) pIC50” value worked out at 5.73. Further, the “BAF3-KDR (PLUS IL3) pIC50” value in [11] is on record as below 5. The “BAF3-FGFR4 pIC50” value in [12] was determined as 7.19.
